Assay results reported in publication PMC8667897, “Natural inspired piperine-based ureas and amides as novel antitumor agents towards breast cancer” (Journal of Enzyme Inhibition and Medicinal Chemistry, 2021).

Target: T1, VEGFR-2 (Homo sapiens, UniProt P35968)
T1 construct: gene KDR
Test: in vitro VEGFR-2 enzyme inhibition assay
Type: biochemical

T1 sequence (P35968 20-1356): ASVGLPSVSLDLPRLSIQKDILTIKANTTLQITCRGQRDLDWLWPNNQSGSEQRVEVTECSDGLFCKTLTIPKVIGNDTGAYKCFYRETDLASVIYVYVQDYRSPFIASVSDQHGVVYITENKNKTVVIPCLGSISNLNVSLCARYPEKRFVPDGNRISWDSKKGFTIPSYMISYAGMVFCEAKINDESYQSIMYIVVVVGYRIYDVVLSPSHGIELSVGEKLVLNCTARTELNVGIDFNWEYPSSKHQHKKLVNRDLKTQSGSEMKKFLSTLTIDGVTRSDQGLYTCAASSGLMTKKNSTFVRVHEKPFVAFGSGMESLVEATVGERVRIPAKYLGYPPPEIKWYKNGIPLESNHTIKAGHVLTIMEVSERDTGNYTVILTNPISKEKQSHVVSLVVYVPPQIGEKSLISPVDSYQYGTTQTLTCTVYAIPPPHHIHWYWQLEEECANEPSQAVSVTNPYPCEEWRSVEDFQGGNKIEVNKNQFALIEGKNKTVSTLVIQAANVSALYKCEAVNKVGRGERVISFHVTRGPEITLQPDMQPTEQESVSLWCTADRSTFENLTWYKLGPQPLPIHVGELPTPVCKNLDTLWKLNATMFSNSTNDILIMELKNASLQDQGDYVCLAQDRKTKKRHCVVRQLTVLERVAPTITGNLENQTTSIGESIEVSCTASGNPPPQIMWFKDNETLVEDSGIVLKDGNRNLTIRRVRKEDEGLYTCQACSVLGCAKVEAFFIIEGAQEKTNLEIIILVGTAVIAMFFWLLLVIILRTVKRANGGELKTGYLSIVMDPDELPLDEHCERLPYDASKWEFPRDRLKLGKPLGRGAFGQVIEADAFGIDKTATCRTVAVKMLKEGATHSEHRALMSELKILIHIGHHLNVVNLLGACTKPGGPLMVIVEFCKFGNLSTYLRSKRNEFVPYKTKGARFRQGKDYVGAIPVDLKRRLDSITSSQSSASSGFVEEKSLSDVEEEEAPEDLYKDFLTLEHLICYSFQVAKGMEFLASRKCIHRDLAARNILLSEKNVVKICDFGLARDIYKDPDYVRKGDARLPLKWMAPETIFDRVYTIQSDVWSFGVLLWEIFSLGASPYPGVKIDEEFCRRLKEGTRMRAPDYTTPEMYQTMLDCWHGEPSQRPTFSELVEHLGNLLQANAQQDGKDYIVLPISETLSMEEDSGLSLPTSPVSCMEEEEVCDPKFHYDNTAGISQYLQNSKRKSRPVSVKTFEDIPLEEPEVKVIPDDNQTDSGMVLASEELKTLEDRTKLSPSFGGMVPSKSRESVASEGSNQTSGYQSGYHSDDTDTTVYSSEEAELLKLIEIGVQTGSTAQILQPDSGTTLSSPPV

## O=C(N/C=C/C=C/c1ccc2c(c1)OCO2)Nc1ccc(Cl)cc1 [8q, 1-((1E,3E)-4-(Benzo[d]1,3dioxol-5-yl)buta-1,3-dien-1-yl)-3–(4-chlorophenyl)urea]
  IC50: 231 ± 5 nM
